Tests used:
Pael receptor [1] = assay: Pulse-chase experiment, turnover of 35S-labeled Pael receptor; assay type: cell-based, human; conditions: 10 μM lactacystin, relative to level at time 0
Description: Pael receptors having FLAG-tagged carboxyl termini (Pael receptor-FLAG) and expression plasmids for Parkin or control plasmids were gene-transferred to SH-SY5Y cells. 36 hours later, the cells were cultured for 1 hour in Dulbecco's modified eagle's medium (M/C-free DMEM) containing 5% fetal calf serum (FCS) but containing no methionine/cysteine under conditions involving the presence or the absence of 10 μM lactacystin. The cells were then labeled at 37° C. for 30 minutes by adding 200 μCi/ml ^35S-methionine/cysteine to the 5% FCS-containing M/C-free DMEM in the presence or the absence of 10 μM lactacystin. […] The metabolically labeled Pael receptor was quantified using Image Gauge software (Fujifilm). Next, to examine whether Parkin degrades the Pael receptor in the ubiquitin-proteasome system, the turnover rate of the Pael receptor was measured under conditions involving the presence or the absence of Parkin by the pulse-chase experiment (FIG. 9). […] Subsequently, ^35S-methionine/cysteine were added for labeling, and then the cells were chased for the time indicated in FIG. 9 in the presence (Lc +) or the absence (Lc −) of 10 μM lactacystin. ^35S-labeld Pael receptors were immunoprecipitated, detected by radioautography (FIG. 9 left), and then quantified by phosphor imaging (FIG. 9 right). […]

SH-SY5Y cells = assay: Cell death assay in SH-SY5Y cells with or without Pael receptor overexpression; assay type: cell-based
Source text: Descriptions concerning expression plasmids for Parkin, Parkin variants, UBCH6, UBCH7 and Ubiquitin are as described in Imai, Y. et al. (2000) J Biol Chem 275, 35661-35664. The full-length complementary strand DNAs (cDNAs) of human and mouse Pael receptors, human ETBR-LP-2, human UBC6, UBC7 and E2-25K were obtained by reverse transcription (RT)-PCR. The full-length cDNA of ETA-R and that of ETB-R were obtained from the RIKEN Gene Bank. Recombinant GST-Parkin, GST-A Ex 4, 6×His tagged UBC6 and UBC7 were produced in the Escherichia coli BL21 strain (DE3) pLysS (Novagen). Site-directed mutagenesis to the active center cysteine of UBC6 and UBC7 was performed by the PCR method. UBC6 of a putative membrane insertion site-deficient type (UBC6ΔC; 1 to 288 amino residues) is expressed better than wild type UBC6 in Escherichia coli and has high enzyme activity, so that UBC6ΔC was subjected to in vitro ubiquitination assay. Anti-Myc (9E10), anti-HA (Y-11), anti-Ubiquitin (FL-76), anti-BiP (N-20) and anti-actin (C-2) antibodies were purchased from Santa Cruz Biotech. Anti-FLAG (M2), anti-HA (3F10), anti-Ubiquitin (1B3), anti-GluR4 (AB1508) and anti-NSE (BBS/NC/VI-H14) were purchased from Sigma, Roche Diagnostics, MBL (Nagoya, Japan), Chemicon and Dako, respectively. Anti-UCH-L1 antibodies were provided by Dr. Keiji WADA (National Center of Neurology and Psychiatry, Japan). 293T cells derived from a human fetal kidney and SH-SY5Y cells derived from neuroblastoma were subjected to gene transfer, immunoprecipitation, Western blot, immunocytochemistry and cell death assay according to the method as described in Imai et al., 2000.
To confirm this prediction, the effect of a proteasome inhibitor and that of a UPR inducer on cell death resulting from the overexpression of Pael receptors were examined (FIG. 11). Vectors (−) having no gene inserted therein or expression plasmids for Pael receptors (+) were gene-transferred with expression plasmids for enhanced green fluorescent proteins (EGFP) to SH-SY5Y cells. The cells were then cultured in the presence (Lc, 20 μM) or the absence (non) of lactacysin, and the presence of tunicamycin (Tm, 5 μg/ml) or 2-ME (2 mM) for 16 hours. Cell death was counted by the method described in Imai, Y. et al. (2000) J Biol Chem 275, 35661-35664. In FIG. 11, the line of error indicates the standard deviation (S.D.) calculated from three experiments.

Pael receptor [2] = assay: Western blotting of 1% Triton X-100-soluble and -insoluble fractions of Pael receptor-transfected SH-SY5Y cells; assay type: cell-based, human; conditions: 16 hours, lactacystin 10 μM, tunicamycin 1 μg/ml, 2-ME 1 mM; for Pael receptors in the insoluble fraction: 1% Triton X-100-insoluble fraction; for expression of BiP (GRP78) and of endogenous Parkin in the soluble fraction: cells over-expressing Pael receptors
Description: Cells were suspended in a cytolysis buffer (consisting of 20 mM HEPES, pH 7.4, 120 mM NaCl, 5 mM EDTA, 10% glycerol, 1% Triton X-100 and Complete Protease Inhibitors [Roche Diagnostics]) and then lysed at 4° C. for 30 minutes. The forebrain cortex of the human cerebrum was suspended in a cytolysis buffer, and then crushed using a downs homogenizer. The sample was fractionated into surfactant-soluble and insoluble fractions, and then immuno-precipitated according to a modified method of Ward et al. (1995) Cell 83, 121-127. Specifically, the suspension was fractionated by centrifugation at 15,000×g for 30 minutes. The supernatant derived from 1% Triton X-100 soluble fraction was directly subjected to immunoprecipitation. The insoluble pellet fraction was washed 4 times in an ice-cooled cytolysis buffer. Subsequently, the fraction was subjected to lysis at 60° C. for 1 hour in a cytolysis buffer supplemented with sodium lauryl sulfate (SDS) with a final concentration of 1%. A cytolysis buffer containing 10 mM MgCl2 and 25 μg/ml DNase I and having a volume 10 times greater than that of the solution was added. The solution was allowed to react at 37° C. for 10 minutes. After centrifugation at 15,000×g for 30 minutes, the supernatant derived from 1% Triton X-100 insoluble fraction was subjected to immunoprecipitation using various antibodies and protein G-coupled or protein A/G (50/50%)-coupled Sepharose beads (Amersham-Pharmacia). The immunoprecipitate was washed 4 times in a cytolysis buffer containing no complete protease inhibitors. 1% Triton X-100-soluble and -insoluble fractions of total cell extract, or immunoprecipitates derived from the 1% Triton X-100-soluble fraction and -insoluble fraction were subjected to Western blot analysis using ECL detection reagent (Amersham-Pharmacia). Proteins were quantified using Coomassie protein assay reagent (Pierce).
Vectors (−) having no gene inserted therein or expression plasmids (+) for Pael receptors were gene-transferred to SH-SY5Y cells, and then the cells were cultured for 20 hours. Next, in the presence or the absence of lactacystin (10 μM) and in the presence of tunicamycin (1 μg/ml) or 2-mercaptoethanol (2-ME; 1 mM), the cells were cultured for 16 hours. The cells were lysed in a buffer containing 1% Triton X-100, and then fractionated by the method described in Ward et al., 1995 Cell 83, 121-127. Insoluble Pael receptors were immunoprecipitated as described above from the insoluble fraction of the same sample, and then analyzed using anti-Ub polyclonal antibodies (FIG. 10). 1% Triton-X100-insoluble or -soluble fraction was obtained under various conditions, including cases wherein Pael receptor cDNA had not been transfected (−) or transfected (+) to SH-SY5Y cells, and then subjected to Western blotting. Even in an untreated state, Pael receptors were already present in the insoluble fraction at a level equivalent to that of the soluble fraction.

Pael receptor [3] = assay: Immunocytochemistry, intracellular distribution of over-expressed Pael receptors in SH-SY5Y cells; assay type: cell-based, human; conditions: SH-SY5Y cells transfected with Pael receptor plasmids, treated for 6 hours
Description: For immunocytochemistry, a human Pael receptor expression vector (1 μg per sample) was gene-transferred, or was gene-transferred in combination with 0.3 μg of red fluorescent protein expression vector (pDsRed1-N1, Clontech) having endoplasmic reticulum localization sequence of calreticulin or Golgi body localization sequence of human β1, 4-galactosyltransferase into SH-SY5Y cells inoculated on a 8-well chamber slide. After 20 hours of culturing, the cells were exposed to 20 μM lactacystin for 16 hours. After washed in phosphate buffered saline, the cells were fixed with 0.2% glutaraldehyde and 2% formaldehyde. Subsequently, the cells were stained with anti-human Pael receptor antibodies or anti-BiP antibodies. For immunohistochemistry, the carboxyl terminal site (541 to 600 amino residues) of mouse Pael receptor was expressed as a GST fusion protein in Escherichia coli. The anti-Pael receptor polyclonal antibody was prepared against a recombinant protein from which the GST portion had been removed. 14 μm-thick frozen sections of the mouse C57BL/6 brain tissue were allowed to react with anti-Pael receptor antibodies (1:200 dilution), anti-TH antibodies (Chemicon, 1:100), anti-NeuN antibodies (Chemicon, 1:200) or anti-CNPase antibodies (Sigma, 1:100). The primary antibody was stained with Alexa 488 or Alexa 546 (Molecular Probes)-labeled secondary antibody. The stained cells or sections were mounted using SlowFade (Molecular probes), and then observed under a confocal laser fluorescence microscope (Fluoview, Olympus).
Furthermore, to confirm the involvement of cell death induced by misfolded proteins in cell death resulting from overexpression of Pael receptors, intracellular distribution of Pael receptors in the presence or the absence of lactacystin was examined. […] Expression plasmids for Pael receptors were gene-transferred to SH-SY5Y cells, and then the cells were cultured in the presence (middle and lower panels) or the absence (upper panel) of lactacystin for 6 hours. […]

[4] = Pael receptor-over-expressing SH-SY5Y cells, 16 hours, lactacystin 20 μM, tunicamycin 5 μg/ml, 2-ME 2 mM
[5] = control SH-SY5Y cells, 16 hours, tunicamycin 5 μg/ml, 2-ME 2 mM

Row | Compound | Pael receptors remained after 180 minutes of chasing (Pael receptor [1]; SH-SY5Y cells over-expressing Parkin) [%] | Pael receptors remained after 180 minutes of chasing (Pael receptor [1]; control SH-SY5Y cells) [%] | cells died (SH-SY5Y cells; human, 16 h, 20 μM) | Pael receptors in the insoluble fraction (Pael receptor [2]) | expression of BiP (GRP78) and of endogenous Parkin in the soluble fraction (Pael receptor [2]) | intracellular distribution of Pael receptors (Pael receptor [3]) | cells died (SH-SY5Y cells; [4]) | cells died (SH-SY5Y cells; [5]) [%]
1 | CC(=O)N[C@@H](CSC(=O)[C@]1([C@@H](O)C(C)C)NC(=O)[C@H](C)[C@@H]1O)C(=O)O [lactacystin] | 58 | 54 | approximately 50% | increased with a high-molecular-weight shift | caused increases | accumulated in the endoplasmic reticulum | – | –
2 | tunicamycin | – | – | – | increased with a high-molecular-weight shift | caused increases | the same | approximately 60% | 40
3 | OCCS [2-ME, 2-mercaptoethanol] | – | – | – | increased with a high-molecular-weight shift | caused increases | the same | approximately 60% | 40

Source: US20060051835A1, “Pael receptor, cells and animal expressing pael receptor and method of screning remedy for parkinson's disease” (priority 2001, published 2006)
